# Measurements as given in the supplement of paper PMC11208160.
# Assay: recombinant UMI read abundance after kanamycin selection (control-corrected) (log10(CPM+1)); higher = more efficient recombination; extreme values may be limits of the assay; sequences stand for … in AGTGCAGAGAAAATCGGCCAGTTTTCTCTGCCTGCAGTCCGCATGCCGTGGGACCCCTTGGGTTCTAACCTGTTGCCTAGATTTATGCAGCGGACTGCCTTTCTCCCAAAGTGATAAACCGG…AGGTTGGTTTCACT; site = the 11-nt donor
# Procedure, shortened: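 Pooled Escherichia coli screen of donor and donor-binding-loop pairs for the IS621 bridge recombinase. Each pair sits with a 12-nt UMI on a plasmid carrying a promoterless kanamycin gene. The library was co-electroporated with a target plasmid encoding a fixed target and T7-inducible recombinase, then plated with IPTG (0.07 mM) plus kanamycin, or unselected, each in two replicates. Recombinant UMIs were PCR-amplified across the donor–target junction and sequenced. Counts became CPM, averaged over replicates, scaled by control-derived factors and reported as log10(CPM+1).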
row,Sequence,recombinant UMI read abundance (log10)
1,ATGTATGCATGGACCGGTTTTCCCGGTAATCCGTATTTGGC (site ATGTACGCTGC),1.51
2,ATGTATGCATGGACCGGTTTTCCCGGTAATCCGTATTTGGC (site ATGTAGGCTGC),0.86
3,ATGTATGCATGGACCGGTTTTCCCGGTAATCCGTATTTGGC (site ATGTATGCTGC),3.22
4,ATGTCCTCATGGACCGGTTTTCCCGGTAATCCGTATTTGTA (site ATGTCCTCTTA),2.5
5,ATGTCGTCATGGACCGGTTTTCCCGGTAATCCGTATTTGTA (site ATGTCGTCTTA),1.95
6,ATGTGCCCATGGACCGGTTTTCCCGGTAATCCGTATTTGCG (site ATGTGCCCTCG),0
7,ATGTTCCCATGGACCGGTTTTCCCGGTAATCCGTATTTGTG (site AAGTTCCCTCA),0.0217
8,ATGTTCCCATGGACCGGTTTTCCCGGTAATCCGTATTTGTG (site ACGTTCCCTCA),0.0446
9,ATGTTCCCATGGACCGGTTTTCCCGGTAATCCGTATTTGTG (site AGGTTCCCTCA),0.0415
10,ATGTTCCCATGGACCGGTTTTCCCGGTAATCCGTATTTGTG (site ATGTTCCCTCA),0.419
11,ATGTTCGCATGGACCGGTTTTCCCGGTAATCCGTATTTGTA (site ATGTTCGCTTA),2.46
12,ATGTTTGCATGGACCGGTTTTCCCGGTAATCCGTATTTGAT (site ATGTTTGCTAT),2.16
13,ATTAAACCATGGACCGGTTTTCCCGGTAATCCGTATTTGCC (site ATTAAACCTGG),0
14,ATTAAAGCATGGACCGGTTTTCCCGGTAATCCGTATTTGTA (site ATTAAAGCTTA),2.6
15,ATTAAGACATGGACCGGTTTTCCCGGTAATCCGTATTTGGT (site ATTAAGACTAC),1.07
16,ATTAAGACATGGACCGGTTTTCCCGGTAATCCGTATTTGGT (site ATTCAGACTAC),0.417
17,ATTAAGACATGGACCGGTTTTCCCGGTAATCCGTATTTGGT (site ATTGAGACTAC),0.577
18,ATTAAGACATGGACCGGTTTTCCCGGTAATCCGTATTTGGT (site ATTTAGACTAC),0.285
19,ATTAGGCCATGGACCGGTTTTCCCGGTAATCCGTATTTGTG (site ATTAGGCCTCA),0.00967
20,ATTCAAGCATGGACCGGTTTTCCCGGTAATCCGTATTTGAG (site ATACAAGCTCT),1.07
21,ATTCAAGCATGGACCGGTTTTCCCGGTAATCCGTATTTGAG (site ATCCAAGCTCT),0.605
22,ATTCAAGCATGGACCGGTTTTCCCGGTAATCCGTATTTGAG (site ATGCAAGCTCT),0.501
23,ATTCAAGCATGGACCGGTTTTCCCGGTAATCCGTATTTGAG (site ATTCAAGCTCT),1.16
24,ATTCAGACATGGACCGGTTTTCCCGGTAATCCGTATTTGGT (site ATTAAGACTAC),0.402
25,ATTCAGACATGGACCGGTTTTCCCGGTAATCCGTATTTGGT (site ATTCAGACTAC),0.566

row,Sequence,recombinant UMI read abundance (log10)
1,ATTCAGACATGGACCGGTTTTCCCGGTAATCCGTATTTGGT (site ATTGAGACTAC),0.305
2,ATTCAGACATGGACCGGTTTTCCCGGTAATCCGTATTTGGT (site ATTTAGACTAC),0.0116
3,ATTCATACATGGACCGGTTTTCCCGGTAATCCGTATTTGTT (site ATTCATACTAA),0.291
4,ATTGAGACATGGACCGGTTTTCCCGGTAATCCGTATTTGGG (site ATTGAGACTAC),0.0103
5,ATTGAGACATGGACCGGTTTTCCCGGTAATCCGTATTTGGG (site ATTGAGACTCC),0.0142
6,ATTGAGACATGGACCGGTTTTCCCGGTAATCCGTATTTGGG (site ATTGAGACTGC),0
7,ATTGAGACATGGACCGGTTTTCCCGGTAATCCGTATTTGGG (site ATTGAGACTTC),0.0235
8,ATTGAGTCATGGACCGGTTTTCCCGGTAATCCGTATTTGGT (site ATTGAGACTAC),0.0845
9,ATTGAGTCATGGACCGGTTTTCCCGGTAATCCGTATTTGGT (site ATTGAGCCTAC),0.00525
10,ATTGAGTCATGGACCGGTTTTCCCGGTAATCCGTATTTGGT (site ATTGAGGCTAC),0
11,ATTGAGTCATGGACCGGTTTTCCCGGTAATCCGTATTTGGT (site ATTGAGTCTAC),2.29
12,ATTGTAACATGGACCGGTTTTCCCGGTAATCCGTATTTGCT (site AATGTAACTAG),1.49
13,ATTGTAACATGGACCGGTTTTCCCGGTAATCCGTATTTGCT (site ACTGTAACTAG),1.9
14,ATTGTAACATGGACCGGTTTTCCCGGTAATCCGTATTTGCT (site AGTGTAACTAG),1.5
15,ATTGTAACATGGACCGGTTTTCCCGGTAATCCGTATTTGCT (site ATTGTAACTAG),2.15
16,ATTGTTGCATGGACCGGTTTTCCCGGTAATCCGTATTTGAC (site ATTGTTGCTGT),2.18
17,ATTGTTGCATGGACCGGTTTTCCCGGTAATCCGTATTTGCT (site ATTGTTGCTAG),2.37
18,ATTTAGACATGGACCGGTTTTCCCGGTAATCCGTATTTGCG (site ATTTAGACTCG),1.16
19,ATTTAGTCATGGACCGGTTTTCCCGGTAATCCGTATTTGTT (site CACATCCCTTC),0.0539
20,ATTTCTACATGGACCGGTTTTCCCGGTAATCCGTATTTGTT (site ATTTCTACTAA),0.0251
21,ATTTGATCATGGACCGGTTTTCCCGGTAATCCGTATTTGTG (site ATTTGATCTCA),1.71
22,CAAACAGCATGGACCGGTTTTCCCGGTAATCCGTATTTGCT (site CAAACAGCTAG),2.26
23,CAAACAGCATGGACCGGTTTTCCCGGTAATCCGTATTTGCT (site CAACCAGCTAG),0.00434
24,CAAACAGCATGGACCGGTTTTCCCGGTAATCCGTATTTGCT (site CAAGCAGCTAG),0.00437
25,CAAACAGCATGGACCGGTTTTCCCGGTAATCCGTATTTGCT (site CAATCAGCTAG),0

row,Sequence,recombinant UMI read abundance (log10)
1,CAAAGAACATGGACCGGTTTTCCCGGTAATCCGTATTTGCG (site CAAAGAACTCG),2.53
2,CAAAGGGCATGGACCGGTTTTCCCGGTAATCCGTATTTGAC (site CAAAGGGCTGT),2.62
3,CAAATTTCATGGACCGGTTTTCCCGGTAATCCGTATTTGTG (site CAAATTTCTCA),0.763
4,CAACAGACATGGACCGGTTTTCCCGGTAATCCGTATTTGAA (site CAACAGACTTT),1.88
5,CAACCAGCATGGACCGGTTTTCCCGGTAATCCGTATTTGCT (site CAAACAGCTAG),0
6,CAACCAGCATGGACCGGTTTTCCCGGTAATCCGTATTTGCT (site CAACCAGCTAG),0
7,CAACCAGCATGGACCGGTTTTCCCGGTAATCCGTATTTGCT (site CAAGCAGCTAG),0
8,CAACCAGCATGGACCGGTTTTCCCGGTAATCCGTATTTGCT (site CAATCAGCTAG),0
9,CAACCCACATGGACCGGTTTTCCCGGTAATCCGTATTTGAT (site CAACCCACTAT),0.946
10,CAACCTGCATGGACCGGTTTTCCCGGTAATCCGTATTTGGC (site CAACCTGCTGC),0
11,CAACTAACATGGACCGGTTTTCCCGGTAATCCGTATTTGGA (site CAACTAACTTC),1.93
12,CAACTAACATGGACCGGTTTTCCCGGTAATCCGTATTTGGA (site CCACTAACTTC),0.226
13,CAACTAACATGGACCGGTTTTCCCGGTAATCCGTATTTGGA (site CGACTAACTTC),0.548
14,CAACTAACATGGACCGGTTTTCCCGGTAATCCGTATTTGGA (site CTACTAACTTC),0.341
15,CAACTAGCATGGACCGGTTTTCCCGGTAATCCGTATTTGCA (site CAACTAGCTTG),1.13
16,CAACTATCATGGACCGGTTTTCCCGGTAATCCGTATTTGAT (site CAACTATCTAT),0.885
17,CAAGAATCATGGACCGGTTTTCCCGGTAATCCGTATTTGAC (site CAAGAATCTGT),2.88
18,CAAGAATCATGGACCGGTTTTCCCGGTAATCCGTATTTGAC (site CTAGTATCTGT),0.416
19,CAAGACACATGGACCGGTTTTCCCGGTAATCCGTATTTGGG (site CAAGACACTCC),1.28
20,CAAGACACATGGACCGGTTTTCCCGGTAATCCGTATTTGGG (site CAAGCCACTCC),0.00576
21,CAAGACACATGGACCGGTTTTCCCGGTAATCCGTATTTGGG (site CAAGGCACTCC),0.0364
22,CAAGACACATGGACCGGTTTTCCCGGTAATCCGTATTTGGG (site CAAGTCACTCC),0.274
23,CAAGATACATGGACCGGTTTTCCCGGTAATCCGTATTTGGT (site CAAGATACTAC),1.97
24,CAAGCACCATGGACCGGTTTTCCCGGTAATCCGTATTTGTG (site CAAGCACCTCA),0.018
25,CAAGCACCATGGACCGGTTTTCCCGGTAATCCGTATTTGTG (site CAAGCCCCTCA),0.00553
